According to PubChem BioAssay AID2060893 (Molecular Pharmacology Branch, DTP, NCI, 2025):
Each block holds one compound with its values, some of them ahead of it.

Test system: K86415-001-R-J1-PDC complex spheroids, viability
Test: Anticancer human tumor K86415-001-R-J1-PDC patient-derived lung adenocarcinoma cell line growth inhibition [RAS]
Conditions: for IC50: curve of first compound; for viability, T/C: stronger effect = lower value
Method in brief: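 Tumour cells grown as complex spheroids with HUVEC endothelial cells and mesenchymal stem cells, treated with RAS pathway inhibitor combinations. Each agent spans half-log steps from near clinical Cmax, or 10 microM where Cmax is unknown.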

[1] = second compound 0.000949 µM, first compound 0.0316 µM
[2] = second compound 0.000949 µM, first compound 0.1 µM
[3] = second compound 0.000949 µM, first compound 0.316 µM
[4] = second compound 0.000949 µM, first compound 1 µM
[5] = second compound 0.000949 µM, first compound 3.16 µM
[6] = second compound 0.000949 µM, first compound 10 µM
[7] = second compound 0.003 µM, first compound 0.0316 µM
[8] = second compound 0.003 µM, first compound 0.1 µM
[9] = second compound 0.003 µM, first compound 0.316 µM
[10] = second compound 0.003 µM, first compound 1 µM
[11] = second compound 0.003 µM, first compound 3.16 µM
[12] = second compound 0.003 µM, first compound 10 µM
[13] = second compound 0.00949 µM, first compound 0.0316 µM
[14] = second compound 0.00949 µM, first compound 0.1 µM
[15] = second compound 0.00949 µM, first compound 0.316 µM
[16] = second compound 0.00949 µM, first compound 1 µM
[17] = second compound 0.00949 µM, first compound 3.16 µM
[18] = second compound 0.00949 µM, first compound 10 µM
[19] = second compound 0.03 µM, first compound 0.0316 µM
[20] = second compound 0.03 µM, first compound 0.1 µM
[21] = second compound 0.03 µM, first compound 0.316 µM
[22] = second compound 0.03 µM, first compound 1 µM
[23] = second compound 0.03 µM, first compound 3.16 µM
[24] = second compound 0.03 µM, first compound 10 µM
[25] = second compound 0.0949 µM, first compound 0.0316 µM
[26] = second compound 0.0949 µM, first compound 0.1 µM
[27] = second compound 0.0949 µM, first compound 0.316 µM
[28] = second compound 0.0949 µM, first compound 1 µM
[29] = second compound 0.0949 µM, first compound 3.16 µM
[30] = second compound 0.0949 µM, first compound 10 µM
[31] = second compound 0.3 µM, first compound 0.0316 µM
[32] = second compound 0.3 µM, first compound 0.1 µM
[33] = second compound 0.3 µM, first compound 0.316 µM
[34] = second compound 0.3 µM, first compound 1 µM
[35] = second compound 0.3 µM, first compound 3.16 µM
[36] = second compound 0.3 µM, first compound 10 µM
[37] = second compound 0.000949 µM, first compound 0.00316 µM
[38] = second compound 0.000949 µM, first compound 0.01 µM
[39] = second compound 0.003 µM, first compound 0.00316 µM
[40] = second compound 0.003 µM, first compound 0.01 µM
[41] = second compound 0.00949 µM, first compound 0.00316 µM
[42] = second compound 0.00949 µM, first compound 0.01 µM
[43] = second compound 0.03 µM, first compound 0.00316 µM
[44] = second compound 0.03 µM, first compound 0.01 µM
[45] = second compound 0.0949 µM, first compound 0.00316 µM
[46] = second compound 0.0949 µM, first compound 0.01 µM
[47] = second compound 0.3 µM, first compound 0.00316 µM
[48] = second compound 0.3 µM, first compound 0.01 µM
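Also: spheroids exposed to agents for seven days before readout.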

IC50 (second compound 0.000949 µM): < 31.6 nM | IC50 (second compound 0.003 µM): < 31.6 nM | IC50 (second compound 0.00949 µM): < 31.6 nM | IC50 (second compound 0.03 µM): < 31.6 nM | IC50 (second compound 0.0949 µM): < 31.6 nM | IC50 (second compound 0.3 µM): < 31.6 nM
Structure (SMILES): CC(C)NCC(C(=O)N1CCN(c2ncnc3c2C(C)CC3O)CC1)c1ccc(Cl)cc1 (stereo not drawn) + CCn1c(-c2cccnc2C(C)OC)c2c3cc(ccc31)N1CCOC(CC(NC(=O)C(C(C)C)N(C)C(=O)C3(F)CCN(C(=O)C#CC(C)(C)N(C)C)CC3)C(=O)N3CCCC(N3)C(=O)OCC(C)(C)C2)C1
viability, T/C [1]: 35.7% | viability, T/C [2]: 32.2% | viability, T/C [3]: 17.5% | viability, T/C [4]: 23.3% | viability, T/C [5]: 27.7% | viability, T/C [6]: 2.82% | viability, T/C [7]: 13.4% | viability, T/C [8]: 10.9% | viability, T/C [9]: 8.95% | viability, T/C [10]: 8.63% | viability, T/C [11]: 7.76% | viability, T/C [12]: 2.54% | viability, T/C [13]: 12.8% | viability, T/C [14]: 9.52% | viability, T/C [15]: 9.15% | viability, T/C [16]: 9.63% | viability, T/C [17]: 4.93% | viability, T/C [18]: 3.21% | viability, T/C [19]: 12.9% | viability, T/C [20]: 10.5% | viability, T/C [21]: 10.2% | viability, T/C [22]: 8.95% | viability, T/C [23]: 4.3% | viability, T/C [24]: 3.21% | viability, T/C [25]: 9.52% | viability, T/C [26]: 9.03% | viability, T/C [27]: 9.7% | viability, T/C [28]: 10% | viability, T/C [29]: 4.97% | viability, T/C [30]: 2.94% | viability, T/C [31]: 12.9% | viability, T/C [32]: 12% | viability, T/C [33]: 10.3% | viability, T/C [34]: 6.44% | viability, T/C [35]: 4.71% | viability, T/C [36]: 2.26%

IC50 (second compound 0.000949 µM): < 0.316 nM | IC50 (second compound 0.003 µM): < 0.316 nM | IC50 (second compound 0.00949 µM): < 0.316 nM | IC50 (second compound 0.03 µM): < 0.316 nM | IC50 (second compound 0.0949 µM): < 0.316 nM | IC50 (second compound 0.3 µM): < 0.316 nM
Structure (SMILES): CC(C)n1nc(-c2ccc3oc(N)nc3c2)c2c(N)ncnc21 + CCn1c(-c2cccnc2C(C)OC)c2c3cc(ccc31)N1CCOC(CC(NC(=O)C(C(C)C)N(C)C(=O)C3(F)CCN(C(=O)C#CC(C)(C)N(C)C)CC3)C(=O)N3CCCC(N3)C(=O)OCC(C)(C)C2)C1
viability, T/C (second compound 0.000949 µM, first compound 0.000316 µM): 34% | viability, T/C (second compound 0.000949 µM, first compound 0.001 µM): 35.4% | viability, T/C [37]: 23.2% | viability, T/C [38]: 41.4% | viability, T/C [1]: 24.4% | viability, T/C [2]: 5.51% | viability, T/C (second compound 0.003 µM, first compound 0.000316 µM): 13% | viability, T/C (second compound 0.003 µM, first compound 0.001 µM): 12.1% | viability, T/C [39]: 10.7% | viability, T/C [40]: 14.7% | viability, T/C [7]: 8.1% | viability, T/C [8]: 3.6% | viability, T/C (second compound 0.00949 µM, first compound 0.000316 µM): 13.2% | viability, T/C (second compound 0.00949 µM, first compound 0.001 µM): 9.19% | viability, T/C [41]: 10.9% | viability, T/C [42]: 13.8% | viability, T/C [13]: 7.68% | viability, T/C [14]: 2.81% | viability, T/C (second compound 0.03 µM, first compound 0.000316 µM): 12.8% | viability, T/C (second compound 0.03 µM, first compound 0.001 µM): 10.7% | viability, T/C [43]: 11.1% | viability, T/C [44]: 12.4% | viability, T/C [19]: 5.85% | viability, T/C [20]: 3.42% | viability, T/C (second compound 0.0949 µM, first compound 0.000316 µM): 10.1% | viability, T/C (second compound 0.0949 µM, first compound 0.001 µM): 11% | viability, T/C [45]: 10.1% | viability, T/C [46]: 12.7% | viability, T/C [25]: 4.18% | viability, T/C [26]: 2.27% | viability, T/C (second compound 0.3 µM, first compound 0.000316 µM): 14.4% | viability, T/C (second compound 0.3 µM, first compound 0.001 µM): 11.3% | viability, T/C [47]: 12.1% | viability, T/C [48]: 7.79% | viability, T/C [31]: 4.23% | viability, T/C [32]: 2.06%

IC50 (second compound 0.000949 µM): < 31.6 nM | IC50 (second compound 0.003 µM): < 31.6 nM | IC50 (second compound 0.00949 µM): < 31.6 nM | IC50 (second compound 0.03 µM): < 31.6 nM | IC50 (second compound 0.0949 µM): < 31.6 nM | IC50 (second compound 0.3 µM): < 31.6 nM
Structure (SMILES): CC(Nc1ccc2c(c1)OCCn1cc(N3C(=O)OCC3C(F)F)nc1-2)C(N)=O (stereo not drawn) + CCn1c(-c2cccnc2C(C)OC)c2c3cc(ccc31)N1CCOC(CC(NC(=O)C(C(C)C)N(C)C(=O)C3(F)CCN(C(=O)C#CC(C)(C)N(C)C)CC3)C(=O)N3CCCC(N3)C(=O)OCC(C)(C)C2)C1
viability, T/C [1]: 26.6% | viability, T/C [2]: 24.9% | viability, T/C [3]: 14.1% | viability, T/C [4]: 24.3% | viability, T/C [5]: 8.98% | viability, T/C [6]: 1.64% | viability, T/C [7]: 11.9% | viability, T/C [8]: 8% | viability, T/C [9]: 6.61% | viability, T/C [10]: 4.14% | viability, T/C [11]: 2.69% | viability, T/C [12]: 0.95% | viability, T/C [13]: 9.31% | viability, T/C [14]: 8.26% | viability, T/C [15]: 6.9% | viability, T/C [16]: 3.65% | viability, T/C [17]: 1.68% | viability, T/C [18]: 1.1% | viability, T/C [19]: 8.58% | viability, T/C [20]: 7.61% | viability, T/C [21]: 6.15% | viability, T/C [22]: 2.63% | viability, T/C [23]: 1.91% | viability, T/C [24]: 1.86% | viability, T/C [25]: 10.4% | viability, T/C [26]: 8.62% | viability, T/C [27]: 4.05% | viability, T/C [28]: 3.24% | viability, T/C [29]: 1.57% | viability, T/C [30]: 1.22% | viability, T/C [31]: 8.96% | viability, T/C [32]: 6.86% | viability, T/C [33]: 3.94% | viability, T/C [34]: 2.09% | viability, T/C [35]: 1.58% | viability, T/C [36]: 1.59%

IC50 (second compound 0.000949 µM): < 3.16 nM | IC50 (second compound 0.003 µM): < 3.16 nM | IC50 (second compound 0.00949 µM): < 3.16 nM | IC50 (second compound 0.03 µM): < 3.16 nM | IC50 (second compound 0.0949 µM): < 3.16 nM | IC50 (second compound 0.3 µM): < 3.16 nM
Structure (SMILES): O=C(c1ccc(F)c(F)c1Nc1ccc(I)cc1F)N1CC(O)([C@@H]2CCCCN2)C1 + CCn1c(-c2cccnc2C(C)OC)c2c3cc(ccc31)N1CCOC(CC(NC(=O)C(C(C)C)N(C)C(=O)C3(F)CCN(C(=O)C#CC(C)(C)N(C)C)CC3)C(=O)N3CCCC(N3)C(=O)OCC(C)(C)C2)C1
viability, T/C [37]: 33.7% | viability, T/C [38]: 29.1% | viability, T/C [1]: 11.7% | viability, T/C [2]: 15.2% | viability, T/C [3]: 6.3% | viability, T/C [4]: 2.8% | viability, T/C [39]: 11.8% | viability, T/C [40]: 8.85% | viability, T/C [7]: 7.64% | viability, T/C [8]: 7.02% | viability, T/C [9]: 4.31% | viability, T/C [10]: 2.26% | viability, T/C [41]: 11.9% | viability, T/C [42]: 9.16% | viability, T/C [13]: 7.57% | viability, T/C [14]: 6.25% | viability, T/C [15]: 3.49% | viability, T/C [16]: 2.55% | viability, T/C [43]: 10.5% | viability, T/C [44]: 8.81% | viability, T/C [19]: 12.8% | viability, T/C [20]: 7.27% | viability, T/C [21]: 2.71% | viability, T/C [22]: 2.49% | viability, T/C [45]: 11.1% | viability, T/C [46]: 9.53% | viability, T/C [25]: 8.98% | viability, T/C [26]: 6.47% | viability, T/C [27]: 2.33% | viability, T/C [28]: 1.78% | viability, T/C [47]: 12.8% | viability, T/C [48]: 11% | viability, T/C [31]: 8.71% | viability, T/C [32]: 5.63% | viability, T/C [33]: 2.69% | viability, T/C [34]: 2.11%
